Results published in PMC3760505 (Bioorganic & medicinal chemistry letters, 2009).

Key:
rhodesain = rhodesain (Trypanosoma brucei rhodesiense, UniProt Q95PM0); assay: biochemical; conditions: read-out: rhodesain inhibition kinetics kinact/Ki
in vitro = conditions: human, Jurkat cells
[1] = tested on: T. brucei brucei parasites
[2] = tested on: T. brucei brucei parasites; assay: microbe, parasite or virus in culture; conditions: Trypanosoma brucei, read-out: parasite growth inhibition GI50 T.b.b parasites
Jurkat cells = conditions: at 10 uM
cruzain = cruzain (Trypanosoma cruzi, UniProt P25779); conditions: initial survey of non-peptidic P2/P3 moieties
Chain of cruzain (P25779 123-467): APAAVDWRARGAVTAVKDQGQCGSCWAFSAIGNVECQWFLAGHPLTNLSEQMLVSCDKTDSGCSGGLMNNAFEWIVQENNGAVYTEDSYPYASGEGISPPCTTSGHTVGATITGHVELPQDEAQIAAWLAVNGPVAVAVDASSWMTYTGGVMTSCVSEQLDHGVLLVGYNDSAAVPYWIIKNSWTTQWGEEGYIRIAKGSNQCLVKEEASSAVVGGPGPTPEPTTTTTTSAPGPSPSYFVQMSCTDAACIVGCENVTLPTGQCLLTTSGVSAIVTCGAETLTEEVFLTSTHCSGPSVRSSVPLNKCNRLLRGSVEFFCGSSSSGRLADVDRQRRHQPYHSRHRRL

Chain of rhodesain (Q95PM0 1-450): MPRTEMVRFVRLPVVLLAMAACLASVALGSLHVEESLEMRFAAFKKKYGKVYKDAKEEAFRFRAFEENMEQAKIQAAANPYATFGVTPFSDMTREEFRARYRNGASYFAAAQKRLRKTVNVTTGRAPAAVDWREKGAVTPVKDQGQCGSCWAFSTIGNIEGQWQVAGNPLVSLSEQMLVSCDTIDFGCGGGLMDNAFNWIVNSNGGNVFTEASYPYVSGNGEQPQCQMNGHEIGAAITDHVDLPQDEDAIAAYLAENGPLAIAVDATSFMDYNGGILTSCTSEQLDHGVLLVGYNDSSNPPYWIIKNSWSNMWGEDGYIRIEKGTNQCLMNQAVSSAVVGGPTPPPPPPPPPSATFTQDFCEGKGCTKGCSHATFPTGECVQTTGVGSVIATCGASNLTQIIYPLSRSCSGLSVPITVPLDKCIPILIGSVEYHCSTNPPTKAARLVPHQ

SMILES | kinact/KI (rhodesain) | IC50 (in vitro) | effect against cultured parasites (in words) [1] | further results
Cc1nc(-c2ccccc2)sc1C(=O)N[C@H](/C=C/S(=O)(=O)c1ccccc1)CCc1ccccc1 [3a] | 84000 M⁻¹ s⁻¹ | > 100 µM | ineffective against cultured parasites | –
Cc1nc(-c2cccnc2)sc1C(=O)N[C@H](/C=C/S(=O)(=O)c1ccccc1)CCc1ccccc1 [3b] | – | – | antiparasitic effects at low micromolar concentration | –
Cc1nc(-c2cnccn2)sc1C(=O)N[C@H](/C=C/S(=O)(=O)c1ccccc1)CCc1ccccc1 [3c] | 25200 M⁻¹ s⁻¹ | > 100 µM | antiparasitic effects at low micromolar concentration | –
O=C(N[C@H](/C=C/S(=O)(=O)c1ccccc1)CCc1ccccc1)c1cc(-c2ccccc2)no1 [4a] | 3610 M⁻¹ s⁻¹ | > 100 µM | ineffective against cultured parasites | –
O=C(N[C@H](/C=C/S(=O)(=O)c1ccccc1)CCc1ccccc1)c1cc(-c2ccncc2)no1 [4b] | 8590 M⁻¹ s⁻¹ | > 100 µM | antiparasitic effects at low micromolar concentration | –
O=C(N[C@H](/C=C/S(=O)(=O)c1ccccc1)CCc1ccccc1)c1cc(-c2cccnc2)no1 [4c] | – | > 100 µM | – | –
O=C(N[C@H](/C=C/S(=O)(=O)c1ccccc1)CCc1ccccc1)c1cc(-c2ccccn2)no1 [4d] | 7720 M⁻¹ s⁻¹ | > 100 µM | antiparasitic effects at low micromolar concentration | –
O=C(N[C@H](/C=C/S(=O)(=O)c1ccccc1)CCc1ccccc1)[C@@H]1CCCC[C@H]1C(=O)c1ccc(Cl)cc1 [7a] | 9750 M⁻¹ s⁻¹ | > 100 µM | – | GI50 [2]: 12 µM
O=C(N[C@H](/C=C/S(=O)(=O)c1ccccc1)CCc1ccccc1)[C@H]1CCCC[C@@H]1C(=O)c1ccc(Cl)cc1 [7b] | 2160 M⁻¹ s⁻¹ | – | – | –
CN1CCN(C(=O)N[C@@H](Cc2ccccc2)C(=O)N[C@H](/C=C/S(=O)(=O)c2ccccc2)CCc2ccccc2)CC1 [K-777 (1)] | – | – | – | cytotoxicity Jurkat cells, percent at single concentration (Jurkat cells): 3% at 10 uM
Cc1onc(-c2ccc(F)cc2)c1C(=O)N[C@H](/C=C/S(=O)(=O)c1ccccc1)CCc1ccccc1 [compound 5] | – | – | – | enzyme activity (in words) (cruzain): ineffective
CC(C)(C)c1cc(C(=O)N[C@H](/C=C/S(=O)(=O)c2ccccc2)CCc2ccccc2)n(Cc2ccccc2)n1 [compound 6] | – | – | – | enzyme activity (in words) (cruzain): ineffective
